The target of this experiment is Hypoxia-inducible factor 1-alpha (Homo sapiens, UniProt Q16665). As to the kind of experiment: Inhibition of HIF-1alpha in human HeLa cells after 6 hrs by luciferase reporter gene assay. In general terms: In a reporter assay the amount or activity of a reporter protein is the signal.
Sequence of Hypoxia-inducible factor 1-alpha (Q16665 whole entry): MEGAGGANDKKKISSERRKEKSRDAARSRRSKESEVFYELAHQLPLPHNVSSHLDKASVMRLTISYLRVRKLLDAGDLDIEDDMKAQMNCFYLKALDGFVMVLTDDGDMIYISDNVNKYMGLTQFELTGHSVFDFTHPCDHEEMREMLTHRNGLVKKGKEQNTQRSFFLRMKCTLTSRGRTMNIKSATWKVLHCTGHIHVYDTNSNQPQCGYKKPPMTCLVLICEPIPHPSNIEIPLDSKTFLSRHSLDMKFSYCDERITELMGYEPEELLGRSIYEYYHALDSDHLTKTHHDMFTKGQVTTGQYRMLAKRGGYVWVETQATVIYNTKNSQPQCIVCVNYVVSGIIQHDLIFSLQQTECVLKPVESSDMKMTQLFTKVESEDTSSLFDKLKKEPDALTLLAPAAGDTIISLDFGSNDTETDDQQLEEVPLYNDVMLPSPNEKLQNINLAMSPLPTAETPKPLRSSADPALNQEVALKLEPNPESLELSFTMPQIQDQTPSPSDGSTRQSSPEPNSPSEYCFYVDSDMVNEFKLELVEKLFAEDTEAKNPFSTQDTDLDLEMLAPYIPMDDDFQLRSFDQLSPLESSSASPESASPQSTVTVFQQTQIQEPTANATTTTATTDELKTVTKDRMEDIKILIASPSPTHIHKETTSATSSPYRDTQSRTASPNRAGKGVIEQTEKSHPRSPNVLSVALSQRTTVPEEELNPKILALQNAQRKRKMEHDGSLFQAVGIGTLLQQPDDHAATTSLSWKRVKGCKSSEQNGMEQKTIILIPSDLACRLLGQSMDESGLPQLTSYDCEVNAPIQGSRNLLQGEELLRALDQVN

Consider `Cc1ccc(C(=O)COC(=O)c2cccc(NC(=O)c3ccc([N+](=O)[O-])cc3[N+](=O)[O-])c2)cc1` [3-[[(2,4-dinitrophenyl)-oxomethyl]amino]benzoic acid [2-(4-methylphenyl)-2-oxoethyl] ester], for which the IC50 worked out at 2600 nM.

As usually defined, the IC50 is the concentration needed to halve the response being measured.

The values above are taken from BindingDB's records for doi:10.1021/acs.jmedchem.8b01596 (China Pharmaceutical University, 2019).
